Patent US10174288B2, “Induced pluripotent stem cell model for cardiofaciocutaneous syndrome and uses thereof” (Korea Advanced Institute of Science and Technology, priority 2013, dated 2019)

How the values were obtained:
Format in all cases: cell-based, human
[1] = test system: CFC-embryonic body; experiment: Embryonic body shape under phase contrast microscope; settings: inhibitor present during CFC-embryonic body differentiation (LDN193189 100 nM, 4 days); compared with untreated CFC-embryonic body; FIG. 8
Procedure: The CFC-iPS fragments were distributed in the ultra-low attachment dish, followed by re-suspension in 5 ml of the embryonic body differentiation medium, which was DMED/F12 supplemented with 10% serum replacement (SR). After 4 days of suspension culture, the differentiation of a CFC-iPS-derived embryonic body (CFC-embryonic body) was induced. On day 2 and day 4 from the inducement, the CFC-embryonic body was obtained and the cell morphology was observed under phase contrast microscope. WT-iPS was cultured as the normal control by the same manner as described above, so that the differentiation of a WT-iPS-derived embryonic body (WT-embryonic body) was induced. […] 4 days after the inducement started, the CFC-embryonic body was obtained and observed under phase contrast microscope to investigate the embryonic body shape. As for the normal control, WT-iPS was cultured by the same manner as described above to induce the differentiation of a WT-iPS derived embryonic body (WT-embryonic body).

[2] = test system: p-SMAD1; experiment: Western blotting of p-SMAD1 in CFC-embryonic body differentiated with inhibitor; settings: 5 μM U0126, 100 nM LDN193189 during embryonic body differentiation; compared with untreated CFC-embryonic body; FIG. 7
Procedure: (§1) Particularly, the colony of CFC-iPS induced by the same manner as described in Example <2-1> was cut into 4 pieces by using […] tissue chopper. The CFC-iPS fragments were distributed in the ultra-low attachment dish, followed by re-suspension in 5 ml of the embryonic body differentiation medium, which was DMED/F12 supplemented with 10% serum replacement (SR). After 4 days of suspension culture, the differentiation of a CFC-iPS-derived embryonic body (CFC-embryonic body) was induced. On day 2 and day 4 from the inducement, the CFC-embryonic body was obtained and the cell morphology was observed under phase contrast microscope. WT-iPS was cultured as the normal control by the same manner as described above, so that the differentiation of a WT-iPS-derived embryonic body (WT-embryonic body) was induced. […] The concentration of the protein was measured by brad-ford assay. […] The expression levels of SMAD1, p-SMAD1, ERK1, p-ERK1, ERK2, and p-ERK2 were quantified by using Image J, the program for the measurement of the pixel intensity, by which the band intensity turned into numerical value. The relative values of p-SMAD1/SMAD1, p-ERK1/ERK1, and p-ERK2/ERK2 were calculated and then the phosphorylation levels of SMAD1, ERK1, and ERK2 were compared with those of the normal control. […]

[3] = test system: p-ERK; experiment: Western blotting of p-ERK in CFC-embryonic body differentiated with inhibitor; settings: 5 μM U0126, 100 nM LDN193189 during embryonic body differentiation; compared with untreated CFC-embryonic body; FIG. 7
Procedure: as §1

N#CC(=C(N)Sc1ccccc1N)C(C#N)=C(N)Sc1ccccc1N [U0126, 1,4-diamino-2,3-dicyano-1,4-bis(2-aminophenylthio)butadiene]
embryonic body shape [1]: normal unbroken embryonic body shape
level of p-SMAD1 in CFC-embryonic body [2]: reduced
level of p-ERK in CFC-embryonic body [3]: down regulation
